Laboratory results reported in patent US20140073631A1 (priority 2012, published 2014).
≈ marks a conversion by molar mass, not a printed value. Like-named read-outs stand apart in the source and are kept apart here.

What was measured:
[1] = tested on: HIV-1 ROJO (low passage clinical strain); experiment: PBMC assay, virus production by reverse transcriptase activity; type: cell-based
[2] = tested on: fresh human peripheral blood mononuclear cells
[3] = tested on: Burkholderia mallei; experiment: microbe, parasite or virus in culture; type: cell-based
[4] = tested on: Bacillus anthracis; experiment: microbe, parasite or virus in culture; type: cell-based; details: Bacillus anthracis; read-out: MIC90
[5] = tested on: Francisella tularensis; experiment: microbe, parasite or virus in culture; type: cell-based; details: Francisella tularensis
[6] = tested on: Flu A H3N2 California/7/04; experiment: Anti-influenza testing, visual and NR assays; type: cell-based, influenza A H3N2; details: for activity by visual and NR assays: Flu A H3N2; for EC50: H3N2, MDCK
[7] = tested on: Flu A H1N1 New Caledonia/20/99; experiment: Anti-influenza testing, visual and NR assays; type: cell-based, influenza A H1N1; details: for activity by visual and NR assays: Flu A H1N1
[8] = tested on: MDCK; experiment: Anti-influenza testing, IC50 in MDCK cell line (cell-inhibitory concentration used for SI); type: cell-based; details: Canis lupus familiaris
[9] = tested on: Plasmodium falciparum; experiment: Anti-malaria testing; type: cell-based

## Cc1cn([C@H]2C[C@H](N=[N+]=[N-])[C@@H](CO)O2)c(=O)[nH]c1=O [AZT, reference compound]
[1]; 0.0013 μM
  RT ACTIVITY % VC: 104.6%
[1]; 0.013 μM
  RT ACTIVITY % VC: 77.3%
[1]; 0.04 μM
  RT ACTIVITY % VC: 81.7%
[1]; 0.13 μM
  RT ACTIVITY % VC: 32.3%
[1]; 0.4 μM
  RT ACTIVITY % VC: 3.8%
[1]; 1.3 μM
  RT ACTIVITY % VC: 8.8%
[1]; 4 μM
  RT ACTIVITY % VC: 0.7%
[1]; ROJO in PBMC, RT activity
  IC50: 0.1 µM
[2]
  CC50: > 4 µM
[2]; 0.0013 μM
  TOXICITY VALUES (XTT) % CC: 90.1%
[2]; 0.013 μM
  TOXICITY VALUES (XTT) % CC: 99.3%
[2]; 0.04 μM
  TOXICITY VALUES (XTT) % CC: 92.1%
[2]; 0.13 μM
  TOXICITY VALUES (XTT) % CC: 89.0%
[2]; 0.4 μM
  TOXICITY VALUES (XTT) % CC: 98.8%
[2]; 1.3 μM
  TOXICITY VALUES (XTT) % CC: 84.8%
[2]; 4 μM
  TOXICITY VALUES (XTT) % CC: 86.2%

## CC[C@H]1OC(=O)[C@H](C)[C@@H](O[C@H]2C[C@@](C)(OC)[C@@H](O)[C@H](C)O2)[C@H](C)[C@@H](O[C@@H]2O[C@H](C)C[C@H](N(C)C)[C@H]2O)[C@](C)(O)C[C@@H](C)CN(C)[C@H](C)[C@@H](O)[C@]1(C)O [Azithromycin, azithromycin, reference compound]
[3]
  MIC Range: 0.0625 to 1 µg/mL
[3]; Burkholderia mallei
  MIC50: 0.5 µg/mL (≈ 0.668 µM)
[3]; Burkholderia mallei, read-out: MIC90
  MIC90: 1 µg/mL (≈ 1.34 µM)

## N=C(NC(=N)N1CCSCC1)NC1C2CC3CCC1(NC(=N)NC(=N)N1CCSCC1)CC3C2 (centres unmarked) [BVS-20A (XII)]
[4]
  MIC90: ≤ 4 µg/mL
[5]
  MIC90: < 4 µg/mL

## O=C1C2C=CC=C([N+](=O)[O-])C2(C(=O)O)C(c2ccccc2)N1c1ccc(O)cc1 (centres unmarked) [BVS-45A (I)]
[6]
  activity by visual and NR assays: highly active
[7]
  activity by visual and NR assays: highly active

## O=C1C2C=CC=C([N+](=O)[O-])C2(C(=O)O)C(c2ccccc2)N1c1ccc(O)cc1 (centres unmarked) [BVS-45]
[8]; Neutral Red assay, test with Flu A (H3N2) California/7/04, trial 1, read-out: IC50
  IC50: 75 µg/mL (≈ 191 µM)
[8]; Visual assay, test with Flu A (H1N1) New Caledonia/20/99, trial 1
  IC50: > 100 µg/mL
[8]; Visual assay, test with Flu A (H3N2) California/7/04, trial 1, read-out: IC50
  IC50: > 100 µg/mL
[8]; Visual-CONF assay, test with Flu A (H1N1) New Caledonia/20/99, trial 2, read-out: IC50
  IC50: > 100 µg/mL
[8]; Visual-CONF assay, test with Flu A (H3N2) California/7/04, trial 2, read-out: IC50
  IC50: > 100 µg/mL
[6]; Influenza A virus, Neutral Red assay, Flu A (H3N2) California/7/04, MDCK, vehicle DMSO, trial 1
  EC50: 0.22 µg/mL (≈ 0.561 µM)
[6]; Influenza A virus, Visual assay, Flu A (H3N2) California/7/04, MDCK, vehicle DMSO, trial 1
  EC50: 0.056 µg/mL (≈ 0.143 µM)
[6]; Influenza A virus, Visual-CONF assay, Flu A (H3N2) California/7/04, MDCK, vehicle DMSO, trial 2
  EC50: 0.056 µg/mL (≈ 0.143 µM)
[6]; Influenza A virus, Virus Yield assay, Flu A (H3N2) California/7/04, MDCK, vehicle DMSO, trial 2
  EC90: 0.15 µg/mL (≈ 0.382 µM)
[7]; Influenza A virus, Virus Yield assay, Flu A (H1N1) New Caledonia/20/99, MDCK, vehicle DMSO, trial 2
  EC90: > 100 µg/mL
[7]; Influenza A virus, Visual-CONF assay, Flu A (H1N1) New Caledonia/20/99, MDCK, vehicle DMSO, trial 2, read-out: EC50
  EC50: 0.18 µg/mL (≈ 0.459 µM)

## N#CNC(=N)NC1C2CC3CCC1(NC(=N)NC#N)CC3C2 (centres unmarked) [BVS-47A (XX)]
[9]; average of Test 1 and Test 2, read-out: Average IC50
  IC50: > 10 µM
[9]; read-out: IC50 Test 1
  IC50: > 10 µM
[9]; read-out: IC50 Test 2
  IC50: > 10 µM
[6]
  activity by visual and NR assays: highly active
[7]
  activity by visual and NR assays: highly active

## N#CNC(=N)NC1C2CC3CCC1(NC(=N)NC#N)CC3C2 (centres unmarked) [BVS-47]
[8]; Neutral Red assay, test with Flu A (H1N1) New Caledonia/20/99, trial 1
  IC50: 70 µg/mL (≈ 233 µM)
[7]; Influenza A virus, H1N1, MDCK
  EC50: 0.25 µg/mL (≈ 0.832 µM)
